Laboratory results as given in patent US20120004272A1, “BIOCIDAL COMPOSITION OF 2,6-DIMETHYL-M-DIOXANE-4-OL ACETATE AND METHODS OF USE” (priority 2009, published 2012).

Assays:
[1] = test system: Pseudomonas aeruginosa (ATCC#15442, ATCC#10145), Enterobacter aerogenes, Escherichia coli, Klebsiella pneumoniae, Staphylococcus aureus, Salmonella …; assay: Preservative efficacy (multi-challenge, 96-deep well) in spinning finish emulsion; format: cell-based; conditions: Day 27, post 4th microbial challenge; ppm active
[2] = test system: Pseudomonas aeruginosa (ATCC#15442, ATCC#10145), Enterobacter aerogenes, Escherichia coli, Klebsiella pneumoniae, Staphylococcus aureus, Salmonella …; assay: Preservative efficacy (multi-challenge, 96-deep well) in water-based latex paint, pH 7.4; format: cell-based
[3] = Day 15, after four bacterial challenges, ppm active
[4] = Day 20, after four bacterial challenges, ppm active

In the case of `ClC=CC[N+]12CN3CN(CN(C3)C1)C2.[Cl-]` [CTAC], the “CTAC alone (ppm), concentration necessary for ≧6 log10 microbial kill” value [1] is reported as 582 ppm.

With `CC1(C)COCN1` [DMO, 4,4-Dimethyloxazolidine] the “DMO alone (ppm), concentration required for ≧4 log10 microbial kill” value [2, 3] was 308 ppm, the “log10 viable microorganisms, DMO alone score” value ([2]; Day 15, DMO 91 ppm) was 8 log10 and the “log10 viable microorganisms, DMO alone score” value ([2]; Day 15, DMO 137 ppm) was 7 log10. The “log10 viable microorganisms, DMO alone score” value ([2]; Day 15, DMO 205 ppm) was 6 log10, the “log10 viable microorganisms, DMO alone score” value ([2]; Day 15, DMO 308 ppm) was 0 log10 and the “log10 viable microorganisms, DMO alone score” value ([2]; Day 15, DMO 463 ppm) was 0 log10. For the same compound, the “log10 viable microorganisms, DMO alone score” value ([2]; Day 15, DMO 693 ppm) was 0 log10, the “log10 viable microorganisms, DMO alone score” value ([2]; Day 15, DMO 1040 ppm) was 0 log10 and the “log10 viable microorganisms, DMO alone score” value ([2]; Day 15, DMO 1560 ppm) was 0 log10. The “DMO alone (ppm), concentration necessary for ≧6 log10 microbial kill” value [1] was 355 ppm.

For `CC(=O)OC1CC(C)OC(C)O1` (stereo not shown) [DMX, 2,6-Dimethyl-m-dioxan-4-ol acetate], the “DMX alone (ppm), concentration required for ≧4 log10 microbial kill” value [2, 3] was 1740 ppm, the “log10 viable microorganisms, DMX alone” value ([2]; Day 15, DMX 102 ppm) was 7 log10 and the “log10 viable microorganisms, DMX alone” value ([2]; Day 15, DMX 153 ppm) was 7 log10. The “log10 viable microorganisms, DMX alone” value ([2]; Day 15, DMX 229 ppm) was 8 log10, the “log10 viable microorganisms, DMX alone” value ([2]; Day 15, DMX 344 ppm) was 8 log10 and the “log10 viable microorganisms, DMX alone” value ([2]; Day 15, DMX 516 ppm) was 7 log10. The “log10 viable microorganisms, DMX alone” value ([2]; Day 15, DMX 773 ppm) was 8 log10, the “log10 viable microorganisms, DMX alone” value ([2]; Day 15, DMX 1160 ppm) was 5 log10 and the “log10 viable microorganisms, DMX alone” value ([2]; Day 15, DMX 1740 ppm) was 0 log10. For the same compound, the “DMX alone (ppm), concentration required for ≧4 log10 microbial kill” value [2, 4] was 1740 ppm, the “log10 viable microorganisms, DMX alone” value ([2]; Day 20, DMX 102 ppm) was 8 log10 and the “log10 viable microorganisms, DMX alone” value ([2]; Day 20, DMX 153 ppm) was 8 log10. For the same compound, the “log10 viable microorganisms, DMX alone” value ([2]; Day 20, DMX 229 ppm) was 8 log10, the “log10 viable microorganisms, DMX alone” value ([2]; Day 20, DMX 344 ppm) was 8 log10 and the “log10 viable microorganisms, DMX alone” value ([2]; Day 20, DMX 516 ppm) was 8 log10. The “log10 viable microorganisms, DMX alone” value ([2]; Day 20, DMX 773 ppm) was 8 log10, the “log10 viable microorganisms, DMX alone” value ([2]; Day 20, DMX 1160 ppm) was 8 log10 and the “log10 viable microorganisms, DMX alone” value ([2]; Day 20, DMX 1740 ppm) was 4 log10. For the same compound, the “DMX alone (ppm), concentration necessary for ≧6 log10 microbial kill” value [1] was 1339 ppm.

For `CCC12COCN1COC2` [EBCO, 7-Ethyl-bicyclooxazolidine], the “EBCO alone (ppm), concentration required for ≧4 log10 microbial kill” value [2, 4] was 1920 ppm, the “log10 viable microorganisms, EBCO alone score” value ([2]; Day 20, EBCO 112 ppm) was 8 log10 and the “log10 viable microorganisms, EBCO alone score” value ([2]; Day 20, EBCO 169 ppm) was 8 log10. For the same compound, the “log10 viable microorganisms, EBCO alone score” value ([2]; Day 20, EBCO 252 ppm) was 8 log10, the “log10 viable microorganisms, EBCO alone score” value ([2]; Day 20, EBCO 379 ppm) was 7 log10 and the “log10 viable microorganisms, EBCO alone score” value ([2]; Day 20, EBCO 569 ppm) was 7 log10. For the same compound, the “log10 viable microorganisms, EBCO alone score” value ([2]; Day 20, EBCO 853 ppm) was 8 log10, the “log10 viable microorganisms, EBCO alone score” value ([2]; Day 20, EBCO 1280 ppm) was 7 log10 and the “log10 viable microorganisms, EBCO alone score” value ([2]; Day 20, EBCO 1920 ppm) was 0 log10.

With `O=[N+]([O-])C(CO)(CO)CO` [TN, 2-Hydroxymethyl-2-nitro-1,3-propanediol] the “TN alone (ppm), concentration necessary for ≧6 log10 microbial kill” value [1] was 592 ppm.
